# According to patent publication US20250154126A1, “CRYSTALLINE FORM OF SULFUR-CONTAINING ISOINDOLINE DERIVATIVE” (JIANGSU HENGRUI PHARMACEUTICALS CO., LTD., priority 2022, published 2025):
# What was measured:
# Format in all cases: physicochemical
# [1] = Hygroscopicity study of crystal forms (dynamic vapour sorption, 25° C.); details: for Crystal form after hygroscopicity test: two cycles
# From the text: According to the “9103 Guideline for Hygroscopicity for Pharmaceuticals” in Part IV of the 2015 edition of the Chinese Pharmacopoeia, descriptions of hygroscopic characteristics and definitions of hygroscopic weight gain are as follows; • Deliquescent: Absorbs sufficient moisture to form a liquid; • Extremely hygroscopic: Hygroscopic weight gain is no less than 15%; • Hygroscopic: Hygroscopic weight gain is less than 15% but no less than 2%; • Slightly hygroscopic: Hygroscopic weight gain is less than 2% but no less than 0.2%; • Non-hygroscopic or nearly non-hygroscopic: Hygroscopic weight gain is less than 0.2%.
# Compound of Formula (I) (Oct. 15, 2021, Nanjing) 03881 Using the Surface Measurement Systems advantage 2, at a temperature of 25° C., and starting at a humidity of 50%, the humidity range was examined from […] to 95%, with increments of 10%. The criterion for evaluation was that the mass change dM/dT at each gradient was less than 0.002%, TMAX was 360 min, and the process was cycled twice.
# [2] = Influencing factor stability of crystal forms (light, high temperature, high humidity, 30 days); details: for change in purity under 60° C. and light: 60° C. and light (4500 Lux); for change in purity under 60° C. and light / physicochemical stability under high humidity: open; for physicochemical stability under high humidity: high humidity conditions of 75% and 92.5%; for crystal form after influencing factor experiments: light, high temperature, high humidity
# Procedure: Each crystal form was spread out in an open exposure setup, and the stability of the samples under conditions of light (4500 Lux), high temperature (40° C., 60° C.), and high humidity (RH 75 RH 92.5%) was examined separately. The sampling inspection period was 30 days.
# [3] = Long-term/accelerated stability of crystal forms (25° C. 60% RH and 40° C. 75% RH); details: for physical and chemical stability, long-term accelerated conditions: 25° C. 60% RH and 40° C. 75% RH, six months
# Procedure: The crystal forms D, E, Q, and U of the compound of formula (I) were respectively placed under conditions of 25° C. with 60% RH and 40° C. with 75% RH to evaluate their stability.
# [4] = 92.5% RH, 7 days, open exposure
# [5] = 92.5% RH, 30 days, open exposure
# [6] = light 4500 Lux, 30 days, open exposure
smiles,measurement,setting,value
"N#Cc1ccc(N2CCC(Sc3ccc(COc4cccc5c4CN([C@H]4CCC(=O)NC4=O)C5=O)cn3)CC2)c(F)c1 [Crystal form U, (S)-4-(4-((5-(((2-(2,6-dioxopiperidin-3-yl)-1-oxoisoindolin-4-yl)oxy)methyl)pyridin-2-yl)thio)piperidin-1-yl)-3-fluorobenzonitrile]",Hygroscopic weight change 0.0% RH-95.0% RH,[1],2.06%
same,Hygroscopic weight change 20% RH-80% RH,[1],1.03%
same,Hygroscopicity class (20% RH-80% RH),[1],(slightly hygroscopic)
same,Crystal form after hygroscopicity test,[1],Untransformed
same,Color and character,"[2]; 40° C., 7 days, open exposure",White solid
same,Purity %,"[2]; 40° C., 7 days, open exposure",99.5%
same,Color and character,"[2]; 40° C., 14 days, open exposure",White solid
same,Purity %,"[2]; 40° C., 14 days, open exposure, listed as Free crystal form U",99.3%
same,Color and character,"[2]; 40° C., 30 days, open exposure",White solid
same,Purity %,"[2]; 40° C., 30 days, open exposure, listed as Free crystal form U",98.8%
same,change in purity under 60° C. and light,[2]; 30 days,slight decrease in purity
same,Color and character,"[2]; 60° C., 7 days, open exposure",White solid
same,Purity %,"[2]; 60° C., 7 days, open exposure, listed as Free crystal form U",98.9%
same,Color and character,"[2]; 60° C., 14 days, open exposure",White solid
same,Purity %,"[2]; 60° C., 14 days, open exposure, listed as Free crystal form U",98.5%
same,Color and character,"[2]; 60° C., 30 days, open exposure",White solid
same,Purity %,"[2]; 60° C., 30 days, open exposure, listed as Free crystal form U",97.5%
same,Color and character,"[2]; 75% RH, 7 days, open exposure",White solid
same,Purity %,"[2]; 75% RH, 7 days, open exposure",99.6%
same,Color and character,"[2]; 75% RH, 14 days, open exposure",White solid
same,Purity %,"[2]; 75% RH, 14 days, open exposure, listed as Free crystal form U",99.7%
same,Color and character,"[2]; 75% RH, 30 days, open exposure",White solid
same,Purity %,"[2]; 75% RH, 30 days, open exposure, listed as Free crystal form U",99.6%
same,Color and character,[2]; [4],White solid
same,Purity %,[2]; [4],99.7%
same,Color and character,"[2]; 92.5% RH, 14 days, open exposure",White solid
same,Purity %,"[2]; 92.5% RH, 14 days, open exposure, listed as Free crystal form U",99.7%
same,Color and character,[2]; [5],White solid
same,Purity %,"[2]; 92.5% RH, 30 days, open exposure, listed as Free crystal form U",99.6%
same,Color and character,"[2]; Onset, 0 days",White solid
same,Purity %,"[2]; Onset, 0 days, listed as Free crystal form U",99.7%
same,physicochemical stability under high humidity,[2]; 30 days,good physicochemical stability
same,Color and character,"[2]; light 4500 Lux, 7 days, open exposure",White solid
same,Purity %,"[2]; light 4500 Lux, 7 days, open exposure, listed as Free crystal form U",99.3%
same,Color and character,"[2]; light 4500 Lux, 14 days, open exposure",White solid
same,Purity %,"[2]; light 4500 Lux, 14 days, open exposure, listed as Free crystal form U",99.3%
same,Color and character,[2]; [6],White solid
same,Purity %,"[2]; light 4500 Lux, 30 days, open exposure, listed as Free crystal form U",98.8%
same,crystal form after influencing factor experiments,[2]; 30 days,remain unchanged
same,"physical and chemical stability, long-term accelerated conditions",[3],good physical and chemical stability
same,Purity % 1 month,"[3]; 25° C., 60% RH",99.7%
same,Purity % 2 months,"[3]; 25° C., 60% RH",99.6%
same,Purity % 3 months,"[3]; 25° C., 60% RH",99.6%
same,Purity % 1 month,"[3]; 40° C., 75% RH",99.7%
same,Purity % 2 months,"[3]; 40° C., 75% RH",99.6%
same,Purity % 3 months,"[3]; 40° C., 75% RH",99.6%
same,Purity % 6 months,"[3]; 40° C., 75% RH",99.5%
same,Purity % Onset,[3],99.7%
"N#Cc1ccc(N2CCC(Sc3ccc(COc4cccc5c4CN([C@H]4CCC(=O)NC4=O)C5=O)cn3)CC2)c(F)c1 [Crystal form E, (S)-4-(4-((5-(((2-(2,6-dioxopiperidin-3-yl)-1-oxoisoindolin-4-yl)oxy)methyl)pyridin-2-yl)thio)piperidin-1-yl)-3-fluorobenzonitrile]",Hygroscopic weight change 0.0% RH-95.0% RH,[1],2.24%
same,Hygroscopic weight change 20% RH-80% RH,[1],0.84%
same,Hygroscopicity class (20% RH-80% RH),[1],(slightly hygroscopic)
same,Crystal form after hygroscopicity test,[1],Untransformed
same,Color and character,"[2]; 40° C., 9 days, open exposure",White solid
same,Purity %,"[2]; 40° C., 9 days, open exposure, listed as Free crystal form E",97.4%
same,Color and character,"[2]; 40° C., 15 days, open exposure",White solid
same,Purity %,"[2]; 40° C., 15 days, open exposure, listed as Free crystal form E",97.0%
same,Color and character,"[2]; 40° C., 30 days, open exposure",White solid
same,Purity %,"[2]; 40° C., 30 days, open exposure, listed as Free crystal form E",96.4%
same,change in purity under 60° C. and light,[2]; 30 days,slight decrease in purity
same,Color and character,"[2]; 60° C., 9 days, open exposure",White solid
same,Purity %,"[2]; 60° C., 9 days, open exposure, listed as Free crystal form E",96.7%
same,Color and character,"[2]; 60° C., 15 days, open exposure",White solid
same,Purity %,"[2]; 60° C., 15 days, open exposure, listed as Free crystal form E",95.9%
same,Color and character,"[2]; 60° C., 30 days, open exposure",White solid
same,Purity %,"[2]; 60° C., 30 days, open exposure, listed as Free crystal form E",94.6%
same,Color and character,"[2]; 75% RH, 9 days, open exposure",White solid
same,Purity %,"[2]; 75% RH, 9 days, open exposure, listed as Free crystal form E",97.9%
same,Color and character,"[2]; 75% RH, 15 days, open exposure",White solid
same,Purity %,"[2]; 75% RH, 15 days, open exposure, listed as Free crystal form E",97.9%
same,Color and character,"[2]; 75% RH, 30 days, open exposure",White solid
same,Purity %,"[2]; 75% RH, 30 days, open exposure, listed as Free crystal form E",97.8%
same,Color and character,"[2]; 92.5% RH, 9 days, open exposure",White solid
same,Purity %,"[2]; 92.5% RH, 9 days, open exposure, listed as Free crystal form E",97.9%
same,Color and character,"[2]; 92.5% RH, 15 days, open exposure",White solid
same,Purity %,"[2]; 92.5% RH, 15 days, open exposure, listed as Free crystal form E",97.8%
same,Color and character,[2]; [5],White solid
same,Purity %,"[2]; 92.5% RH, 30 days, open exposure, listed as Free crystal form E",97.8%
same,Color and character,"[2]; Onset, 0 days",White solid
same,Purity %,"[2]; Onset, 0 days, listed as Free crystal form E",97.9%
same,physicochemical stability under high humidity,[2]; 30 days,good physicochemical stability
same,Color and character,"[2]; light 4500 Lux, 9 days, open exposure",White solid
same,Purity %,"[2]; light 4500 Lux, 9 days, open exposure, listed as Free crystal form E",97.7%
same,Color and character,"[2]; light 4500 Lux, 15 days, open exposure",White solid
same,Purity %,"[2]; light 4500 Lux, 15 days, open exposure, listed as Free crystal form E",97.4%
same,Color and character,[2]; [6],White solid
same,Purity %,"[2]; light 4500 Lux, 30 days, open exposure, listed as Free crystal form E",94.9%
same,crystal form after influencing factor experiments,[2]; 30 days,remain unchanged
same,"physical and chemical stability, long-term accelerated conditions",[3],good physical and chemical stability
same,Purity % 1 month,"[3]; 25° C., 60% RH",97.9%
same,Purity % 2 months,"[3]; 25° C., 60% RH",97.8%
same,Purity % 3 months,"[3]; 25° C., 60% RH",97.8%
same,Purity % 1 month,"[3]; 40° C., 75% RH",97.8%
same,Purity % 2 months,"[3]; 40° C., 75% RH",97.8%
same,Purity % 3 months,"[3]; 40° C., 75% RH",97.8%
same,Purity % 6 months,"[3]; 40° C., 75% RH",97.4%
same,Purity % Onset,[3],97.9%
